Laboratory results taken from US20250011347A1, “NOVEL PLASMALOGEN DERIVATIVE” (Institute of Rheological Function of Food Co., Ltd., priority 2021, published 2025).
“Also recorded” adds a separate entry of the source.

Key:
c57BL6J mice = assay: Water maze test of mice with LPS-induced memory impairment; assay type: in vivo, mouse; conditions: 10 mg/50 kg/day in drinking water 4 weeks, then LPS 7 days, Trial 6, P<0.05, FIG. 12
Experimental: Specifically, 8-week-old male c57BL6J mice (5 mice in each group, n=5) were allowed to drink each of the compounds of the present invention (KIT-008 and KIT-020) at a dose of 10 mg/50 kg/day for 4 weeks, and were then subjected to LPS treatment (200 mg/kg/day) for 7 days while allowing them to drink the compound in the same manner. Thereafter, they were subjected to a water maze test for 2 days (3 trials per day).
Escape Latency indicates the time required to arrive at an escape platform (arrival time). Comparisons between groups were performed by ANOVA test and Bonferroni's post hoc test. […] Therefore, the compounds of the present invention are effective in improving brain function (cognitive function).

p65 (NFkB) [1] = assay: LPS-induced p65 nuclear accumulation in BV2 microglial cells (Western blotting); assay type: cell-based, mouse; conditions: compound 5 μg/ml 12 hours, then LPS 1 μg/ml 2 hours, FIG. 2
Experimental: (§1) Mouse microglial cells (BV2) were cultured using a DMEM medium containing 2% FBS (fetal bovine serum) for 12 hours under conditions with or without the addition of the compound of the present invention, KIT-008 or KIT-020 (5 μg/ml). Thereafter, it was treated with LPS (1 μg/ml) for 2 hours, proteins in the cell nucleus were extracted, and p65 (NFkB) protein expression was detected by Western blotting using NF-κB p65 (Cell Signaling Technology, the clone name: D14E12) as a primary antibody and Anti-Rabbit IgG HRP-linked antibody (Cell Signaling Technology) as a secondary antibody.

[2] = tested on: lysosomes in mouse neurons Neuro2a (N2a); assay: Impaired lysosomal acidification in Neuro2a neurons induced by culture supernatant of LPS-treated BV2; assay type: cell-based; conditions: N2a cells, compound 24 hours, then 24 hours in supernatant of LPS-treated BV2 with compound; LysoTracker Red; FIG. 10
Experimental: Lysosomes in mouse neurons Neuro2a (N2a) cultured in a normal DMEM medium were labeled with LysoPrime Green (Dojindo). LysoPrime Green is a fluorescent dye that is highly specific for lysosomes which are acidic organelles and that is resistant to pH changes.
Then, N2a is cultured in the culture supernatant of mouse glial cells BV2 treated with the endotoxin lipopolysaccharide (LPS) (1 μg/ml, 18 h) or the culture supernatant of untreated BV2, and labeled with LysoTracker™ Red DND-99 (Thermo Fisher Scientific) which targets acidic organelles.
That is, it was shown that acidification of the lysosomes in the neurons were impaired by glial cell-derived factors in the medium resulting from inflammation.
Each of the compounds of the present invention, KIT-008, KIT-019 and KIT-020 was added to the medium of N2a cells and cultured for 24 hours, and then cultured for another 24 hours in the culture supernatant of BV2 administered with LPS in the presence of each compound.

[3] = tested on: microglia (Iba1-positive cells) and astrocytes (GFAP-positive cells) in hippocampal tissue; assay: LPS-induced amoeboid shaped microglia and astrocytes increase in mouse hippocampal tissue (immunohistochemistry); assay type: in vivo; conditions: c57BL6J mice hippocampal tissue, 10 mg/50 kg/day in drinking water 4 weeks, then LPS 10 days; for LPS-induced amoeboid shaped astrocytes (GFAP-positive cells) increase / LPS-induced amoeboid shaped microglia (Iba1-positive cells) increase: FIG. 17, 18; for LPS-induced astrocytes (GFAP-positive cells) increase (number): FIG. 18 lower graph
Experimental: Specifically, 8-week-old male c57BL6J mice were allowed to drink each of the compounds of the present invention (KIT-008 and KIT-020) at a dose of 10 mg/50 kg/day for 4 weeks, and were then subjected to LPS treatment (200 mg/kg/day) for 10 days while allowing them to drink the compound in the same manner. The mouse brain tissue was subjected to an immunohistochemistry (IHC) study using Iba1 (a microglia marker, Fujifilm 019-19741) and GFAP (an astrocyte marker, Sigma C9205). DAPI was used to stain a cell nucleus. In FIG. 17, the scale bar is 100 μm. The data in FIG. 18 represent the percentages of amoeboid shaped microglia and amoeboid shaped astrocytes (upper graphs) and the number of astrocytes (GFAP-positive cells) (a lower graph) in each group (3 mice, n=3). In the LPS group, the amoeboid shaped microglia (Iba1-positive cells) and the amoeboid shaped astrocytes (GFAP-positive cells) increased compared to the control group. In addition, the astrocytes (GFAP-positive cells) increased. However, in the KIT-008 group and the KIT-020 group, the LPS-induced amoeboid shaped microglia (Iba1-positive cells) increase and amoeboid shaped astrocytes (GFAP-positive cells) increase and astrocytes (GFAP-positive cells) increase were suppressed.

p65 (NFkB) [4] = assay: LPS-induced p65 nuclear accumulation in MG6 microglial cells (Western blotting); assay type: cell-based, mouse; conditions: compound 5 μg/ml 24 hours, then LPS 1 μg/ml 8 hours, FIG. 3
Experimental: as §1, with “cells (MG6)” for “cells (BV2)”, “for 24” for “for 12”, “invention, KIT-019” for “invention, KIT-008”, “for 8” for “for 2”

[5] = tested on: amyloid beta (Aβ) deposition in hippocampal tissue; assay: LPS-induced amyloid beta (Aβ) deposition in mouse hippocampal tissue (immunohistochemistry); assay type: in vivo; conditions: c57BL6J mice hippocampal tissue, 10 mg/50 kg/day in drinking water 4 weeks, then LPS 10 days; FIG. 13, 14
Experimental: Specifically, 8-week-old male c57BL6J mice were allowed to drink each of the compounds of the present invention (KIT-008 and KIT-020) at a dose of 10 mg/50 kg/day for 4 weeks, and were then subjected to LPS treatment (200 mg/kg/day) for 10 days while allowing them to drink the compound in the same manner. The mouse hippocampal tissue was subjected to an immunohistochemistry test using an anti-amyloid beta antibody (a cocktail of two antibodies, 6E10 (BioLegend) and 82E1 (Immuno-Biological Laboratories Co, Ltd)). DAPI was used to stain a cell nucleus. In FIG. 13, the scale bar is 100 μm and the arrows indicate amyloid beta that deposited. The data in FIG. 14 represent the average number of amyloid beta deposition in each group (3 mice, n=3). In the LPS group, amyloid beta deposition was observed compared to the control group, but in the KIT-008 group and the KIT-020 group, amyloid beta deposition caused by LPS was suppressed.

IL-1β protein = assay: LPS-induced secreted IL-1β protein in MG6 microglial cells (ELISA); assay type: cell-based, mouse; conditions: compound 5 μg/ml 24 hours, then LPS 1 μg/ml 8 hours, ELISA of culture medium, FIG. 4
Experimental: Five-thousand mouse microglial cells (MG6) were cultured in a 96-well dish containing 100 μl of a DMEM medium containing 2% FBS (fetal bovine serum). Then, 5 μg/ml of each of the compounds of the present invention, KIT-019 and KIT-020 was added and cultured for 24 hours. Thereafter, it was treated with LPS (1 μg/ml) for 8 hours. The culture medium was collected, and the secreted IL-1β protein was measured by ELISA using DuoSet Mouse IL-1β (R&D Systems).

[6] = tested on: inducible nitric oxide synthase (iNOS); assay: LPS-induced iNOS expression in mouse hippocampal tissue (immunohistochemistry); assay type: in vivo; conditions: c57BL6J mice hippocampal tissue, 10 mg/50 kg/day in drinking water 4 weeks, then LPS 10 days; FIG. 15, 16
Experimental: Specifically, 8-week-old male c57BL6J mice were allowed to drink each of the compounds of the present invention (KIT-008 and KIT-020) at a dose of 10 mg/50 kg/day for 4 weeks, and were then subjected to LPS treatment (200 mg/kg/day) for 10 days while allowing them to drink the compound in the same manner. The mouse brain tissue was subjected to an immunohistochemistry (IHC) study using an anti-NeuN antibody (a neuron marker, Millipore MAB377) and an anti-iNOS antibody (an inflammatory marker, Invitrogen PA1-036). DAPI was used to stain a cell nucleus.
In FIG. 15, the scale bar is 50 μm and the arrows indicate iNOS-positive neurons. The data in FIG. 16 represents the average value for each group (3 mice, n=3). In the LPS group, the number of iNOS-positive neurons increased compared to that in the control group, but in the KIT-008 group and the KIT-020 group, the increase in iNOS-positive neurons caused by LPS was suppressed.

[7] = tested on: amyloid beta (Aβ) in N2a cells; assay: Amyloid beta (Aβ) accumulation in lysosomes of CFPAPPsw-expressing N2a cells; assay type: cell-based, mouse; conditions: N2a cells expressing CFPAPPsw in LPS-treated BV2-derived medium, pretreatment with compound; antibody 6E10; FIG. 11
From the text: A plasmid having cDNA encoding CFPAPPsw (CFPAPPsw that fuses a fluorescent protein CFP to the N-terminus of an amyloid precursor protein (APPsw) having a Swedish-type amino acid substitution that is easily cleaved by BACE) was expressed in N2a cells, and localization of amyloid beta (Aβ) in the N2a cells in an untreated mouse glial cell BV2 culture supernatant (−LPS), in the N2a cells in LPS-treated BV2 culture supernatant (LPS-treated BV2-derived medium), and in the N2a cells administered with KIT-008 was verified using an antibody 6E10 (BioLegend) that recognizes the Aβ portion.

MeCP2-deficient mice = assay: Survival (lifetime) of MeCP2-deficient mice; assay type: in vivo, mouse; conditions: male MeCP2-deficient mice from 4 weeks old, 20 ng/g body weight in drinking water twice a week
Experimental: Four-week-old male MeCP2-deficient mice were used in the experiment. The MeCP2-deficient mice were divided into two groups: a KIT-008 administration group (KO-KIT-008, n=13) and a control group (KO-All, n=28). The body weight of each of the mice in the administration group was measured in advance. The compound KIT-008 was suspended in water by sonication so that KIT-008 was ingested at 20 ng/g body weight, and it was continuously administered in drinking water to each mouse twice a week to verify its survival. The control group was given only water in the same manner.

[8] = tested on: inflammatory cytokine IL-1β; assay: LPS-induced IL-1β expression in BV2 microglial cells (semi-quantitative PCR); assay type: cell-based, mouse; conditions: compound 5 μg/ml 12 hours, then LPS 1 μg/ml 2 hours, FIG. 1
Experimental: Mouse microglial cells (BV2) were cultured using a DMEM medium containing 2% FBS (fetal bovine serum) for 12 hours under conditions with or without the addition of the compound of the present invention, KIT-008 (5 μg/ml). Thereafter, the cells were treated with LPS (1 μg/ml) for 2 hours, and intracellular RNAs were extracted with an RNA extraction kit (TRI Reagent, Molecular Research Center Inc.), and the expression of an inflammatory cytokine IL-1β and the RNA expression of the Gapdh gene as a control were detected by semi-quantitative PCR (TaKaRa PrimeScript 1st strand cDNA synthesis Kit, TAKARA BIOTECHNOLOGY Co., LTD.).

Structure (SMILES) | memory retention (Escape Latency) compared to the LPS group (c57BL6J mice) | LPS-induced p65 nuclear accumulation (p65 (NFkB) [1]) | impaired acidification of lysosomes in neurons caused by glial cell-derived factors [2] | LPS-induced amoeboid shaped astrocytes (GFAP-positive cells) increase [3] | LPS-induced amoeboid shaped microglia (Iba1-positive cells) increase [3] | LPS-induced astrocytes (GFAP-positive cells) increase (number) [3] | LPS-induced p65 nuclear accumulation (p65 (NFkB) [4]) | amyloid beta deposition caused by LPS [5] | LPS-induced inflammatory cytokine IL-1β protein expression (IL-1β protein) | increase in iNOS-positive neurons caused by LPS [6] | accumulation of Aβ in lysosomes [7] | survival rate compared with MeCP2-deficient mice not administered (MeCP2-deficient mice; FIG. 5) | number of days until the survival rate reached 50% (MeCP2-deficient mice; control group 64.5 days) | LPS-induced inflammatory cytokine IL-1β expression [8]
CCCCC/C=C\C/C=C\C/C=C\C/C=C\CCCC(=O)O[C@H](COC/C=C/CCCCCCCCCCCCCCC)COP(=O)(O)OCCN [KIT-020, 2-((hydroxy((R)-2-(((5Z,8Z,11Z,14Z)-icosa-5,8,11,14-tetraenoyl)oxy)-3-(((E)-octadec-2-en-1-yl)oxy)propoxy)phosphoryl)oxy)ethane-1-ammonium 2,2,2-trifluoroacetate] | improvement in memory retention | significantly suppressed | ameliorated | suppressed | suppressed | suppressed | significantly suppressed | suppressed | significantly reduced | suppressed |  |  |  | 
CC/C=C\C/C=C\C/C=C\C/C=C\C/C=C\C/C=C\CCC(=O)O[C@H](COC/C=C/CCCCCCCCCCCCCCC)COP(=O)(O)OCCN [KIT-008, 2-((((R)-2-(((4Z,7Z,10Z,13Z,16Z,19Z)-docosa-4,7,10,13,16,19-hexenoyl)oxy)-3-(((E)-octadec-2-en-1-yl)oxy)propoxy)(hydroxy)phosphoryl)oxy)ethane-1-ammonium 2,2,2-trifluoroacetate] | improvement in memory retention | suppressed | ameliorated; also recorded: highest effect | suppressed | suppressed | suppressed |  | suppressed |  | suppressed | eliminated | higher | 78 days | reduced
CCCCCCCC/C=C\CCCCCCCC(=O)O[C@H](COC/C=C/CCCCCCCCCCCCCCC)COP(=O)(O)OCCN [KIT-019, 2-((hydroxy((R)-3-3-(((E)-octadec-2-en-1-yl)oxy)-2-(oleoyloxy)propyl)phosphoryl)oxy)ethane-1-ammonium 2,2,2-trifluoroacetate] |  |  | ameliorated |  |  |  | significantly suppressed |  | significantly reduced |  |  |  |  | 
